Data from BindingDB's records for doi:10.1038/nbt1059 (Plexxikon, 2005).

Legend:
[1] = target: cAMP-specific 3',5'-cyclic phosphodiesterase 4D [372-376,381-715,S375G,I381V,S383G,G384S,V385H,K386M) (Homo sapiens, UniProt Q08499, S375G/I381V/S383G/G384S/V385H/K386M); assay: Phosphodiesterase (PDE) Inhibition Assay
Experimental: (§1) Phosphodiesterase activities were assayed in the presence of inhibitor compounds. Measurement takes advantage of the selective binding of 5-AMP or 5-GMP (and not cAMP or cGMP) to yttrium silicate beads with embedded scintillant. Hydrolysis is quantified by reading in a scintillation counter (Trilux, Wallac). The cAMP and cGMP concentrations used were far below the Km of PDE.

[2] = target: T1, cAMP-specific 3',5'-cyclic phosphodiesterase 4B [316-320,321-700,S319G,N320S,N321H,T322M] (Homo sapiens, UniProt Q07343, S319G/N320S/N321H/T322M); assay: Phosphodiesterase (PDE) Inhibition Assay; conditions: pH 7.5; 30 °C
T1 construct: 316-320,321-700
Experimental: as §1

SMILES	IC50 [1] [µM]	IC50 [2] [µM]
Cc1n[nH]c(C)c1C(=O)O [3,5-dimethyl-1H-pyrazole-4-carboxylic acid]	> 200	> 200
CCOC(=O)c1c[nH]nc1C(F)(F)F [5-(trifluoromethyl)-1H-pyrazole-4-carboxylic acid ethyl ester]	> 200	> 200
CCOC(=O)c1c(C)nn(-c2ccc(OC)cc2)c1C [ethyl 1-(4-methoxyphenyl)-3,5-dimethyl-1H-pyrazole-4-carboxylate]	–	5.9
CCOC(=O)c1c(C)nn(-c2ccc(C(C)(C)C)cc2)c1C [ethyl 1-(4-tert-butylphenyl)-3,5-dimethyl-1H-pyrazole-4-carboxylate]	14	19
CCOC(=O)c1c(C)nn(-c2cc(C(F)(F)F)cc(C(F)(F)F)c2)c1C [ethyl 1-[3,5-bis(trifluoromethyl)phenyl]-3,5-dimethyl-1H-pyrazole-4-carboxylate]	97	160
CCOC(=O)c1c(C)nn(-c2ccc(OC(F)(F)F)cc2)c1C [ethyl 3,5-dimethyl-1-[4-(trifluoromethoxy)phenyl]-1H-pyrazole-4-carboxylate]	21	32
CCOC(=O)c1c(C)nn(-c2ccccc2)c1C [ethyl 3,5-dimethyl-1-phenyl-1H-pyrazole-4-carboxylate]	–	0.31
CCOC(=O)c1c(C)n[nH]c1C [ethyl 3,5-dimethyl-1H-pyrazole-4-carboxylate]	–	60
CCOC(=O)c1cn(-c2ccccc2)nc1-c1ccc(Cl)cc1 [ethyl 3-(4-chlorophenyl)-1-phenyl-1H-pyrazole-4-carboxylate]	0.88	1.5
COC(=O)c1c(-c2cc(C)on2)n[nH]c1C [methyl 3-methyl-5-(5-methyl-1,2-oxazol-3-yl)-1H-pyrazole-4-carboxylate]	> 200	> 200

Next, values leading:

IC50 [1] [µM]	IC50 [2] [µM]	SMILES
4.6	17	CCOC(=O)c1c(C)nn(-c2ccc([N+](=O)[O-])cc2[N+](=O)[O-])c1C [ethyl 1-(2,4-dinitrophenyl)-3,5-dimethyl-1H-pyrazole-4-carboxylate]
0.019	–	CCOC(=O)c1c(C)nn(-c2ccccc2Cl)c1C [ethyl 1-(2-chlorophenyl)-3,5-dimethyl-1H-pyrazole-4-carboxylate]
–	0.35	CCOC(=O)c1c(C)nn(-c2ccc(N)cc2)c1C [ethyl 1-(4-aminophenyl)-3,5-dimethyl-1H-pyrazole-4-carboxylate]
1	0.84	CCOC(=O)c1c(C)nn(-c2ccc([N+](=O)[O-])cc2)c1C [ethyl 3,5-dimethyl-1-(4-nitrophenyl)-1H-pyrazole-4-carboxylate]
9.1	13	CCOC(=O)c1c(C)nn(-c2ccc(S(N)(=O)=O)cc2)c1C [ethyl 3,5-dimethyl-1-(4-sulfamoylphenyl)-1H-pyrazole-4-carboxylate]
19	17	CCOC(=O)c1c(C)nn(-c2cccc3cccnc23)c1C [ethyl 3,5-dimethyl-1-(quinolin-8-yl)-1H-pyrazole-4-carboxylate]
> 200	> 200	CCOC(=O)c1cn[nH]c1N [ethyl 3-amino-1H-pyrazole-4-carboxylate]
19	15	CCOC(=O)c1c(-c2ccc(OC)cc2)n[nH]c1N [ethyl 3-amino-5-(4-methoxyphenyl)-1H-pyrazole-4-carboxylate]
> 200	> 200	CCOC(=O)c1cn[nH]c1C [ethyl 3-methyl-1H-pyrazole-4-carboxylate]
50	25	CCOC(=O)c1cnn(-c2ncnc3sc4c(c23)CCCC4)c1N [ethyl 5-amino-1-{8-thia-4,6-diazatricyclo[7.4.0.0^{2,7}]trideca-1(9),2(7),3,5-tetraen-3-yl}-1H-pyrazole-4-carboxylate]
